k = constrained ethyl (cEt); d = 2'-deoxy (DNA)
Assays:
[1] = Liver transaminase levels (ALT, AST) in serum, Example 3; type: in vivo; settings: mice serum
From the text: (§1) Each treatment group consisted of 4 animals.

[2] = tested on: mouse Metastasis associated lung adenocarcinoma transcript 1 (Malat-1); assay: In vivo dose response of Isis No. 556062 with and without FTY-720 pre-treatment (Malat-1 RNA, Example 3); settings: mice, Liver
Description: as §1
Malat-1 RNA levels were determined as described in Example 2. The results are presented in Table 18 as average Malat-1 RNA levels for each treatment group. Results for groups that received Isis No. 556062 alone are relative the group that received only PBS, and results for groups that received Isis No. 556062 and 1 mg/kg FTY-720 are relative to the group that received 1 mg/kg FTY-720 and PBS in place of Isis No. 556062.

[3] = 0.3 mg/kg 556062 subcutaneous, FTY-720 dose 0 mg/kg
[4] = 0.3 mg/kg 556062 subcutaneous, FTY-720 dose 1 mg/kg
[5] = 1 mg/kg 556062 subcutaneous, FTY-720 dose 0 mg/kg
[6] = 1 mg/kg 556062 subcutaneous, FTY-720 dose 1 mg/kg
[7] = 3 mg/kg 556062 subcutaneous, FTY-720 dose 0 mg/kg
[8] = 3 mg/kg 556062 subcutaneous, FTY-720 dose 1 mg/kg
[9] = 9 mg/kg 556062 subcutaneous, FTY-720 dose 0 mg/kg
[10] = 9 mg/kg 556062 subcutaneous, FTY-720 dose 1 mg/kg

556062 (antisense GGCTTAATGCAGCATT; sugars from the 5' end k3 d10 k3, all phosphorothioate, methylation of C not given here) [compound 556062]
ALT [1, 3]: 24 U/L | AST [1, 3]: 48 U/L | ALT [1, 4]: 17 U/L | AST [1, 4]: 48 U/L | ALT [1, 5]: 56 U/L | AST [1, 5]: 50 U/L | ALT [1, 6]: 18 U/L | AST [1, 6]: 45 U/L | ALT [1, 7]: 24 U/L | AST [1, 7]: 58 U/L | ALT [1, 8]: 25 U/L | AST [1, 8]: 40 U/L | ALT [1, 9]: 31 U/L | AST [1, 9]: 71 U/L | ALT [1, 10]: 24 U/L | AST [1, 10]: 46 U/L | Average Malat-1 RNA [2, 3]: 80 % control | Average Malat-1 RNA ([2]; 0.3 mg/kg 556062 subcutaneous, FTY-720 dose 1 mg/kg i.p. daily): 63 % control | Average Malat-1 RNA [2, 5]: 49 % control | Average Malat-1 RNA ([2]; 1 mg/kg 556062 subcutaneous, FTY-720 dose 1 mg/kg i.p. daily): 36 % control | Average Malat-1 RNA [2, 7]: 18 % control | Average Malat-1 RNA ([2]; 3 mg/kg 556062 subcutaneous, FTY-720 dose 1 mg/kg i.p. daily): 19 % control | Average Malat-1 RNA [2, 9]: 11 % control | Average Malat-1 RNA ([2]; 9 mg/kg 556062 subcutaneous, FTY-720 dose 1 mg/kg i.p. daily): 6 % control

— patent publication US20170283804A1, “ANTISENSE COMPOUNDS AND USES THEREOF” (Ionis Pharmaceuticals, Inc., priority 2014, published 2017)
